From PubChem BioAssay (NCI) come the findings set out here.

Common to all, as to assay: DTP human tumour cell line panel, 48 h
Test [1] has as its system A549 NSCLC.
For test [2], the system named is CAKI-1 renal.
The subject of test [3] is HCT-116 colon.
The test system of test [4] is HOP-92 NSCLC.
Test [5] relates to NCI-H460 lung.
Test [6] deals with OVCAR-3 ovarian.
The subject of test [7] is SNB-19 CNS.
Test [8] concerns DU-145 prostate.
For test [9], the system named is MDA-MB-231 breast.
The subject of test [10] is MDA-MB-435.

Molecules are shown by their SMILES.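 Tested at 5 concentrations; 48 h exposure; 96-well plates; endpoints linearly interpolated, else capped at highest concentration. Here, GI50 denotes the concentration required for 50% inhibition of growth. Definition used: TGI = concentration required for complete inhibition of growth.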 Some results are limits rather than exact numbers.

For the compound `C1OC1CO[C@@H]1CO[C@H]2[C@@H]1OC[C@H]2OCC1CO1` (stereo not given in full), the TGI in test [1], in [2], in test [3], in test [4], in [5] and in [6] was more than 100 µM each time. The same compound came in with a TGI in test [7] of more than 100 µM.
On to `CCOC(=O)C(=Cc1ccc(C(=O)OC)cc1)C(=O)OCC`, for which the TGI is 12.4 µM in test [1]; 3.35 µM in test [2]; 12.5 µM in [3]; 4.02 µM in test [4]; 55.2 µM in test [5]; 9.57 µM in test [6]. In addition, the concentration for total growth inhibition (TGI) in test [7] was found to be 6.47 µM.
With `COc1ccccc1C#Cc1ccccc1C#CCCCCCC#Cc1ccccc1C#Cc1ccccc1OC`, the GI50 in test [1] was more than 100 µM; in test [2] it was 41.2 µM; in [8] it was more than 100 µM; in test [3] it was 58 µM; in test [9] it was 60.3 µM; in [10], 83.8 µM. Further, the GI50 in test [5] was more than 100 µM; in [6] it was 93.5 µM; in [7] it was more than 100 µM. Also, the TGI in [1], in [2], in test [8], in [3], in test [9] and in test [10] was more than 100 µM each time. Also, the concentration for total growth inhibition (TGI) in test [5], in test [6] and in test [7] was more than 100 µM in each case.
For the compound `CN(C)C(=O)c1cc2cnc(Nc3ccc(-c4csc5c(=O)cc(N6CCOCC6)oc45)cc3)nc2n1C1CCCC1`, the GI50 in test [1] was 0.213 µM; in test [2] it was 0.152 µM; in test [8], 0.265 µM; in test [3], 0.169 µM; in [4], 0.0541 µM; in [10] it was 0.196 µM. Moreover, the GI50 is 0.209 µM in test [5], 0.228 µM in test [6] and 0.217 µM in test [7]. For the same compound, the TGI is more than 100 µM in test [1]; 1.15 µM in test [2]; 1.32 µM in test [8]; 0.815 µM in test [3]; 41.9 µM in [4]; 1.89 µM in [10]. Besides, the values for the concentration for total growth inhibition (TGI) in test [5] and in test [7] were 1.18 µM and more than 28.5 µM, respectively.
Consider `CCCCOP1(=O)C=C(C)C(=C(Cl)Cl)C(C)=C1` (stereo not given), for which the TGI in [1] is more than 41.5 µM; in test [2], 27.8 µM; in test [3], 6.29 µM; in test [4], 4.88 µM; in test [5], 36 µM; in test [6], 39.1 µM. In test [7], this compound showed a total growth inhibition concentration (TGI) of more than 77.9 µM.
For the compound `NC(=O)C(c1ccccc1)N1CCOCC1` (stereo not given), the TGI in test [1], in test [2], in test [3], in test [4], in test [5] and in test [6] was more than 100 µM in each case.
Consider `COc1ccccc1NC(=O)C1=C(C)NC(C)=C(C(=O)Nc2ccccc2OC)C1c1ccc(C)cc1`, for which the concentration for total growth inhibition (TGI) in test [2], in [3], in test [4], in [5], in test [6] and in [7] was more than 100 µM in each case.
Turning to `CCN(c1ccc(Br)cc1)c1c(Br)c(=O)nc2ccccn12`, the TGI in [1], in test [2], in [3], in test [4], in [5] and in [6] was more than 100 µM throughout. For the same compound, the TGI in test [7] was more than 100 µM.
On to `COc1cccc(Cc2c3cc(OC)ccc3cc[n+]2C)c1`, for which the TGI in test [1], in test [2], in test [5], in test [6] and in [7] was more than 100 µM in each case.
Consider `CC(=O)OC1(C)C(=O)OC1(C)C(C)=O` (stereo not given), for which the TGI in [1], in test [2], in [3], in [4], in test [6] and in test [7] was more than 100 µM in each case.
Consider `CC1=CCC23C(C1)OC(Br)(C=CC2(C)O)C3(C)C` (stereo not given), for which the TGI in test [1], in [2], in [3], in [4] and in test [5] was more than 100 µM each time.
As for `CCCCCCCCCCCCSC(=N)N`, the GI50 is 12.9 µM in test [1]; 3.79 µM in [2]; 8.98 µM in [8]; 3.86 µM in test [3]; 2.03 µM in test [9]; 3.9 µM in test [10]. Moreover, the GI50 in [5] was 3.42 µM; in test [6], 10.3 µM; in test [7], 15.7 µM. Besides, the total growth inhibition concentration (TGI) came out at 29.5 µM in test [1]; 14.4 µM in test [2]; 23 µM in test [8]; 14.9 µM in test [3]; 8.28 µM in test [9]; 15.3 µM in [10]. For the same compound, the TGI in test [5] is 13.4 µM; in test [6], 26.2 µM; in [7] it was 45.7 µM.
Take `O=C(CC(=O)N1N=C(N2c3ccccc3Sc3ccccc32)CC1c1ccccc1)Nc1ccc(Cl)cc1` (stereo not given): the TGI in test [1], in test [2], in [3], in test [4], in test [5] and in [6] was more than 100 µM throughout. Also, the TGI in test [7] is more than 100 µM.
For `CCSC1=C(C)N(C=NC(C)(C)C)CC1`, the TGI in test [1], in test [2], in test [3], in test [4], in [5] and in [6] was more than 100 µM each time. Besides, the TGI in test [7] was more than 100 µM.
In the case of `O=C1c2c(n(Cc3ccccc3)c(=O)n2Cc2ccccc2)C(=O)N1Cc1ccccc1`, the TGI in [1], in test [2], in [3], in [4], in test [5] and in test [6] was more than 100 µM each time. Also, in test [7], the TGI was more than 100 µM.
